Molecules are shown by their SMILES. Structures can show the parent of a compound that is named as a salt. Where two headings read alike, the source gives them in different places.

The target in the experiment is T1, Farnesyltransferase (FTase) (Bos taurus, UniProt P29702+P49355).
T1 construct: precipitation from a beef brain homogenate; from tissue; host or cells: bovine brain
Description: Farnesyltransferase inhibition (scintillation proximity assay, [3H]-FPP / biotin-K-ras peptide). The class given is biochemical, bovine. The procedure, abridged:
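Read-out: [3H]-FPP prenylation of a biotinylated K-ras peptide by SPA, measured 1 h after quenching. Enzyme: FTase purified from bovine brain (ammonium sulfate cut, DEAE Sepharose), free of GGTase I and II. Test compounds in ethanol, diluted 10-fold into the reaction.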
In general terms: In a scintillation proximity assay essentially only radioactivity close to the scintillant gives light.

The mark [1] stands for this setting: compound at 10^−6 M, bovine FTase, 37° C., 30 minutes.

T1 sequence (P49355 whole entry, one chain of several): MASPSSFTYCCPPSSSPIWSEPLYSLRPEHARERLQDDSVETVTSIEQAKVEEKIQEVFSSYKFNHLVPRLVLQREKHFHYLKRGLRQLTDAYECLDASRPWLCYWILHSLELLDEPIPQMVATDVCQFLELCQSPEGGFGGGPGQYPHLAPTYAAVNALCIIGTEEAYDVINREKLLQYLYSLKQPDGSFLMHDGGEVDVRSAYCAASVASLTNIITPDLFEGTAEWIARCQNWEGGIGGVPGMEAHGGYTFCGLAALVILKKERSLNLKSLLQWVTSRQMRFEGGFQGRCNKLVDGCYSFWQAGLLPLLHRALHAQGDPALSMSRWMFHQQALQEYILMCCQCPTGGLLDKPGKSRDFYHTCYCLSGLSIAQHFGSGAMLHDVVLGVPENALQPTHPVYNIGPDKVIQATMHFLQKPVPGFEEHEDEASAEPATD

One may read the inhibition as the share of the control response that was lost under treatment. Low values mean a weak effect, high ones a strong effect. In the case of `Cc1ccccc1-c1cc(C(OCc2ccccc2Br)c2cncn2C)ccc1C#N` (stereo not drawn) [Example 185, 5-(((2-bromobenzyl)oxy)(1-methyl-1H-imidazol-5-yl)methyl)-2′-methyl(1,1′-biphenyl)-2-carbonitrile hydrochloride], under setting [1], testing at 1 µM gave an inhibition of 85%.

In turn, `Cn1cncc1CN(Cc1ccc(C#N)cc1)c1ccc(C#N)c(-c2cccc3ccccc23)c1` [Example 231, 4-((4-cyanobenzyl)((1-methyl-1H-imidazol-5-yl)methyl)amino)-2-(1-naphthyl)benzonitrile] gave an inhibition at 1 µM under setting [1] of 100%.

The term % Inhibition denotes the relative decrease from the control value, in per cent. As to `Cc1ccccc1-c1cc(C(OCc2cc([N+](=O)[O-])cc3c2OCOC3)c2cncn2C)ccc1C#N.Cl` (stereo not drawn) [Example 168], the “% Inhibition at 10^−6M” value was 96%.

As for `Cn1cncc1C(NCc1ccc(C#N)cc1)c1ccc(C#N)c(-c2cccc3ccccc23)c1` (stereo not drawn) [Example 13, 4-(((4-cyanobenzyl)amino)(1-methyl-1H-imidazol-5-yl)methyl)-2-(1-naphthyl)benzonitrile dihydrochloride], at 1 µM the inhibition under setting [1] was 100%.

As for `Cn1cncc1C(OCc1ccc(C(N)=O)cn1)c1ccc(C#N)c(-c2cccc3cccnc23)c1` (stereo not drawn) [Example 244, 6-(((4-cyano-3-(8-quinolinyl)phenyl)(1-methyl-1H-imidazol-5-yl)methoxy)methyl)nicotinamide trihydrochloride], under setting [1], the inhibition at 1 µM came to 90%.

On to `COC(=O)c1ccc(CN(Cc2cncn2C)c2ccc(C#N)c(-c3cccc4ccccc34)c2)cc1` [Example 268, methyl 4-((4-cyano((1-methyl-1H-imidazol-5-yl)methyl)-3-(1-naphthyl)anilino)methyl)benzoate], for which the “% Inhibition at 10^−6M” value under setting [1] turned out to be 100%.

The compound `Cn1cncc1C(OCc1ccccc1)c1ccc(C#N)c(-c2cccc(-c3ccccc3)c2)c1` (stereo not drawn) [Example 6, 5-((benzyloxy)(1-methyl-1H-imidazol-5-yl)methyl)-3′-(phenyl)(1,1′-biphenyl)-2-carbonitrile hydrochloride] gave an inhibition at 1 µM under setting [1] of 61%.

Under setting [1], `Cc1ccccc1-c1cc(C(OCc2cnc(Cl)c(Cl)c2)c2cncn2C)ccc1C#N` (stereo not drawn) [Example 181, 5-(((5,6-dichloro-3-pyridinyl)methoxy)(1-methyl-1H-imidazol-5-yl)methyl)-2′-methyl(1,1′-biphenyl)-2-carbonitrile hydrochloride] gave an inhibition at 1 µM of 93%.

Under setting [1], `Cn1cncc1C(NC1CCN(Cc2ccccc2)CC1)c1ccc(C#N)c(-c2cccc3ccccc23)c1` (stereo not drawn) [Example 55, 4-(((1-benzyl-4-piperidinyl)amino)(1-methyl-1H-imidazol-5-yl)methyl)-2-(1-naphthyl)benzonitrile trihydrochloride] gave an inhibition at 1 µM of 100%.

Compound `Cn1cncc1C(OCc1ccc(F)c(C(F)(F)F)c1)c1ccc(C#N)c(-c2cccc3cccnc23)c1` (stereo not drawn) [Example 242, 4-(((4-fluoro-3-(trifluoromethyl)benzyl)oxy)(1-methyl-1H-imidazol-5-yl)methyl)-2-(8-quinolinyl)benzonitrile dihydrochloride] returned an inhibition at 1 µM under setting [1] of 98%.

The compound `Cc1ccccc1-c1cc(C(OCc2ccccc2F)c2cncn2C)ccc1C#N` (stereo not drawn) [Example 138, 5-(((2-fluorobenzyl)oxy)(1-methyl-1H-imidazol-5-yl)methyl)-2′-methyl(1,1′-biphenyl)-2-carbonitrile hydrochloride] yielded an inhibition at 1 µM under setting [1] of 92%.

For the compound `Cc1ccccc1-c1cc(C(OCc2ccc(S(C)(=O)=O)cc2)c2cncn2C)ccc1C#N.Cl` (stereo not drawn) [Example 151], the “% Inhibition at 10^−6M” value came to 94%.

Regarding `Cc1ccccc1-c1cc(NCc2cncn2C)ccc1C#N` [Example 225, 2′-methyl-5-(((1-methyl-1H-imidazol-5-yl)methyl)amino)(1,1′-biphenyl)-2-carbonitrile], under setting [1], 1 µM produced 50% inhibition.

For the compound `Cn1cncc1CN(Cc1ccc(Cl)cc1)Cc1ccc(C#N)c(-c2cccc3ccccc23)c1` [Example 40, 4-(((4-chlorobenzyl)((1-methyl-1H-imidazol-5-yl)methyl)amino)methyl)-2-(1-naphthyl)benzonitrile dihydrochloride], the inhibition at 1 µM under setting [1] came out at 100%.

`Cn1cncc1C(NCc1ccc(Cl)c(Cl)c1)c1ccc(C#N)c(-c2cccc3ccccc23)c1` (stereo not drawn) [Example 47, 4-(((3,4-dichlorobenzyl)amino)(1-methyl-1H-imidazol-5-yl)methyl)-2-(1-naphthyl)benzonitrile]: the inhibition at 1 µM under setting [1] stood at 100%.

As to `Cn1cncc1CN(CCCc1ccccc1)c1ccc(C#N)c(-c2cccc3ccccc23)c1` [Example 230, 4-(((1-methyl-1H-imidazol-5-yl)methyl)(3-phenylpropyl)amino)-2-(1-naphthyl)benzonitrile], under setting [1], 1 µM produced 100% inhibition.

Compound `Cn1cncc1C(OCc1ccc(C#N)c(Cl)c1)c1ccc(C#N)c(-c2cccc3ccccc23)c1` (stereo not drawn) [Example 61, 4-(((3-chloro-4-cyanobenzyl)oxy)(1-methyl-1H-imidazol-5-yl)methyl)-2-(1-naphthyl)benzonitrile hydrochloride] came in with an inhibition at 1 µM under setting [1] of 100%.

Compound `Cc1ccccc1-c1cc(N(Cc2cncn2C)C(=O)c2ccccc2)ccc1C#N` [Example 236, N-(6-cyano-2′-methyl(1,1′-biphenyl)-3-yl)-N-((1-methyl-1H-imidazol-5-yl)methyl)benzamide] displayed an inhibition at 1 µM under setting [1] of 93%.

Under setting [1], `Cn1cncc1C(OCc1ccc(C#N)cc1)c1ccc(C#N)c(-c2ccccc2C(F)(F)F)c1` (stereo not drawn) [Example 201, 5-(((4-cyanobenzyl)oxy)(1-methyl-1H-imidazol-5-yl)methyl)-2′-(trifluoromethyl)(1,1′-biphenyl)-2-carbonitrile hydrochloride] returned an inhibition at 1 µM of 99%.

`Cn1cncc1C(OCc1ccc(C#N)cc1)c1ccc(C#N)c(-c2ccccc2CO)c1` (stereo not drawn) [Example 204, 5-(((4-cyanobenzyl)oxy)(1-methyl-1H-imidazol-5-yl)methyl)-2′-(hydroxymethyl)(1,1′-biphenyl)-2-carbonitrile] yielded an inhibition at 1 µM under setting [1] of 96%.

As for `Cc1cc(C)cc(COC(c2ccc(C#N)c(-c3ccccc3C)c2)c2cncn2C)c1.Cl` (stereo not drawn) [Example 158, 5-(((3,5-dimethylbenzyl)oxy)(1-methyl-1H-imidazol-5-yl)methyl)-2′-methyl(1,1′-biphenyl)-2-carbonitrile hydrochloride], under “compound at 10^−6 M, bovine FTase, 37° C., 30 minutes, hydrochloride”, the “% Inhibition at 10^−6M” value was 95%.

Consider `Cn1cncc1C(OCc1ccc(C#N)c(I)c1)c1ccc(C#N)c(-c2cccc3ccccc23)c1` (stereo not drawn) [Example 63, 4-(((4-cyano-3-iodobenzyl)oxy)(1-methyl-1H-imidazol-5-yl)methyl)-2-(1-naphthyl)benzonitrile hydrochloride], for which the inhibition at 1 µM under setting [1] was determined as 100%.

In the case of `COC(=O)c1ccc(CNC(c2ccc(C#N)c(-c3cccc4ccccc34)c2)c2cncn2C)cc1` (stereo not drawn) [Example 38, methyl 4-((((4-cyano-3-(1-naphthyl)phenyl)(1-methyl-1H-imidazol-5-yl)methyl)amino)methyl)benzoate], testing at 1 µM under setting [1] gave an inhibition of 100%.

`Cc1ccccc1-c1cc(C(OCc2ccc3ccccc3c2)c2cncn2C)ccc1C#N` (stereo not drawn) [Example 183, 2′-methyl-5-((1-methyl-1H-imidazol-5-yl)(2-naphthylmethoxy)methyl)(1,1′-biphenyl)-2-carbonitrile hydrochloride] gave an inhibition at 1 µM under setting [1] of 90%.

Under setting [1], `Cc1cccc(-c2cc(C(OCc3ccc(C#N)cc3)c3cncn3C)ccc2C#N)c1C` (stereo not drawn) [Example 278, 5-(((4-cyanobenzyl)oxy)(1-methyl-1H-imidazol-5-yl)methyl)-2′,3′-dimethyl(1,1′-biphenyl)-2-carbonitrile hydrochloride] showed an inhibition at 1 µM of 99%.

`Cn1cncc1C(OCc1ccc(C#N)cn1)c1ccc(C#N)c(-c2ccccc2C(F)(F)F)c1` (stereo not drawn) [Example 251, 6-(((6-cyano-2′-(trifluoromethyl)(1,1′-biphenyl)-3-yl)(1-methyl-1H-imidazol-5-yl)methoxy)methyl)nicotinonitrile dihydrochloride] had an inhibition at 1 µM under setting [1] of 99%.

In turn, `Cn1cncc1C(OCc1ccc(C#N)cc1)c1ccc(C#N)c(-c2cccc3ncccc23)c1` (stereo not drawn) [Example 43, 4-(((4-cyanobenzyl)oxy)(1-methyl-1H-imidazol-5-yl)methyl)-2-(5-quinolinyl)benzonitrile dihydrochloride] showed an inhibition at 1 µM under setting [1] of 100%.

The compound `Cn1cncc1C(OCc1ccc(C#N)c(Br)c1)c1ccc(C#N)c(-c2cccc3ccccc23)c1` (stereo not drawn) [Example 75, 4-(((3-bromo-4-cyanobenzyl)oxy)(1-methyl-1H-imidazol-5-yl)methyl)-2-(1-naphthyl)benzonitrile hydrochloride] returned an inhibition at 1 µM under setting [1] of 100%.

On to `Cn1cncc1C(OCc1ccccc1)c1ccc(C#N)c(-c2ccccc2Cl)c1` (stereo not drawn) [Example 10, 5-((benzyloxy)(1-methyl-1H-imidazol-5-yl)methyl)-2′-chloro(1,1′-biphenyl)-2-carbonitrile hydrochloride], for which, under setting [1], at 1 µM the inhibition was 94%.

Compound `CCCCCCN(Cc1cncn1C)c1ccc(C#N)c(-c2cccc3ccccc23)c1` [Example 233, 4-(hexyl((1-methyl-1H-imidazol-5-yl)methyl)amino)-2-(1-naphthyl)benzonitrile] had an inhibition at 1 µM under setting [1] of 100%.

`Cn1cncc1C(OCc1cccc(C#N)c1)c1ccc(C#N)c(-c2cccc3ccccc23)c1` (stereo not drawn) [Example 262, 4-(((3-cyanobenzyl)oxy)(1-methyl-1H-imidazol-5-yl)methyl)-2-(1-naphthyl)benzonitrile] gave an inhibition at 1 µM under setting [1] of 100%.

The compound `Cc1ccccc1-c1cc(NCc2cccnc2)ccc1C#N` [Example 216, 2′-methyl-5-((3-pyridinylmethyl)amino)(1,1′-biphenyl)-2-carbonitrile] registered an inhibition at 1 µM under setting [1] of 27%.

In the case of `COc1ccccc1-c1cc(C(OCc2ccccc2)c2cncn2C)ccc1C#N` (stereo not drawn) [Example 5, 5-((benzyloxy)(1-methyl-1H-imidazol-5-yl)methyl)-2′-methoxy(1,1′-biphenyl)-2-carbonitrile hydrochloride], under setting [1], the inhibition at 1 µM is 91%.

The record behind these values is patent publication US20020019527A1 (priority 2000, published 2002).
